Results on 20 compounds are retold here after US20100261679A1 (priority 2007, published 2010).

Assay [1] concerns the target T1, cytoplasmic domain of the human CSF-1R (Homo sapiens, UniProt P07333).
T1 construct: Recombinant protein corresponding to the cytoplasmic domain of the human CSF-1R; purchased Invitrogen Corporation, Carlsbad, Calif; U.S.A. PV3249
T1 sequence (P07333 539-972 limits assumed): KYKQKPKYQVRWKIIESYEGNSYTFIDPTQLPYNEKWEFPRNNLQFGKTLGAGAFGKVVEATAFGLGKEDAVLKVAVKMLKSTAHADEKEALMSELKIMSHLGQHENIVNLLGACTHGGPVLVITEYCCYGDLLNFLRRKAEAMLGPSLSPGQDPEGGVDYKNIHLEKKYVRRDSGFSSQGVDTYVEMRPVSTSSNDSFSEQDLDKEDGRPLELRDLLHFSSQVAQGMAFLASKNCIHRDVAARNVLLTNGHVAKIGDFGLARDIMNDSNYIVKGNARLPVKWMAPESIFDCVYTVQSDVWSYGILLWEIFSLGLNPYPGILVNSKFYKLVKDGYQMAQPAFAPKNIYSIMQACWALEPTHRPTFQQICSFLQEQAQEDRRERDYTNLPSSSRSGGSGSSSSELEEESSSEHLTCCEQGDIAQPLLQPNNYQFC
The experiment in a line: In vitro kinase assay for CSF-1R (AlphaScreen). The class given is biochemical. Particulars: tested at about 1 μM. As to the method:
The kinase activity of various protein tyrosine kinases can be measured by providing ATP and a suitable peptide or protein tyrosine-containing substrate, and assaying the transfer of phosphate moiety to the tyrosine residue. Recombinant protein corresponding to the cytoplasmic domain of the human CSF-1R was purchased from Invitrogen Corporation, Carlsbad, Calif. U.S.A. (#PV3249). For each assay, test compounds were serially diluted, starting at 25 μM with 3 fold dilutions, in DMSO in 384 well plates then mixed with an appropriate kinase reaction buffer consisting of 50 mM Hepes, 5 mM MgCl2, 10 mM MnCl2, 0.1% BSA, pH 7.5, 1.0 mM dithiothreitol, 0.01% Tween 80 plus […]. Kinase protein and an appropriate biotinylated peptide substrate at 50 nM were added to give a final volume of 20 μL, reactions were incubated for 2 hours at room temperature and stopped by the addition of 10 μL of 45 mM EDTA, 50 mM Hepes pH 7.5. Added to the stopped reaction mix was 30 μL of PT66 Alphascreen beads (Perkin Elmer, Boston, Mass., U.S.A.). The reaction was incubated overnight and read on the Envision (Perkin Elmer). Phosphorylated peptide product was measured with the AlphaScreen system (Perkin Elmer) using acceptor beads coated with anti-phosphotyrosine antibody PT66 and donor beads coated with streptavidin that emit a fluorescent signal at the 520-620 nm emission wave length if in close proximity. The concentration of each compound for 50% inhibition (IC50) was calculated by non-linear regression using XL Fit data analysis software.
CSF-1R kinase was assayed in 50 mM Hepes pH 7.0, 5 mM MgCl2, 10 mM MnCl2, 1 mM DTT, 1 mg/mL BSA, 1.0 μM ATP, and 0.05 μM biotin-GGGGRPRAATF-NH2 (SEQ ID NO:2) peptide substrate. CSF-1R kinase was added at final concentration of 4 nM.
In general terms: Alpha assays give light when donor and acceptor beads are brought close together.

Another assay concerns the target T2, cKIT (Homo sapiens, UniProt P10721).
T2 construct: The kinase domain of cKIT was assayed in 50 mM Hepes; purchased Upstate 14-559
The experiment in a line: Inhibition of cKIT kinase in an in vitro biochemical assay (alphascreen). Particulars: tested at about 1 μM. On the procedure: (§1) The IC50 values for the inhibition of RTKs were determined in the alphascreen format measuring the inhibition by compound of phosphate transfer to a substrate by the respective enzyme. Briefly, the respective RTK domain purchased as human recombinant protein (cKIT Upstate #14-559, PDGFRb Invitrogen #P3082) were incubated with serial dilutions of compound in the presence of substrate and ATP concentrations within 3 times the Km of the enzyme.
(§2) The kinase domain of cKIT was assayed in 50 mM Hepes, pH=7.5, 5 mM MgCl2, 10 mM MnCl2, 1 mM DTT, 0.1% BSA with 0.06 uM biotinylated peptide substrate (GGLFDDPSYVNVQNL-NH2) and 15 μM ATP (ATP KM apparent =15 μM). The kinase domain of PDGFRβ was assayed in 50 mM Hepes, pH=7.5, 20 mM MgCl2, 1 mM DTT, 0.1% BSA with 0.1 μM biotinylated peptide substrate (GGLFDDPSYVNVQNL-NH2) and 10 μM ATP (ATP KM apparent=25 μM). Reactions were incubated at room temperature for 3 to 4 hr and stopped with buffer (20 mM EDTA, 0.01% Tween-20 for both PDGFRβ and cKIT). Alphascreen PY20 beads were added to the stopped cKIT reactions and PY20 Ab/Protein A Alphascreen beads were added to the PDGFRβ stopped reactions. Both reactions were incubated overnight and read on the Alphascreen reader. The concentration of compound for 50% inhibition (IC50) was calculated employing non-linear regression using XL-Fit data analysis software. As a control compound, staurosporine is run in every assay and a Z′>0.5 is required to validate results.

The next assay concerns the target T3, PDGFRb (Homo sapiens, UniProt P09619).
T3 construct: The kinase domain of PDGFRβ was assayed in 50 mM Hepes; purchased Invitrogen P3082
Nature of the assay: Inhibition of PDGFRb kinase in an in vitro biochemical assay (alphascreen). Particulars: tested at about 1 μM; read-out: PDGFR % inhibition at 1 μM. As to the method: as §1, §2

T3 sequence (P09619 600-962 limits assumed): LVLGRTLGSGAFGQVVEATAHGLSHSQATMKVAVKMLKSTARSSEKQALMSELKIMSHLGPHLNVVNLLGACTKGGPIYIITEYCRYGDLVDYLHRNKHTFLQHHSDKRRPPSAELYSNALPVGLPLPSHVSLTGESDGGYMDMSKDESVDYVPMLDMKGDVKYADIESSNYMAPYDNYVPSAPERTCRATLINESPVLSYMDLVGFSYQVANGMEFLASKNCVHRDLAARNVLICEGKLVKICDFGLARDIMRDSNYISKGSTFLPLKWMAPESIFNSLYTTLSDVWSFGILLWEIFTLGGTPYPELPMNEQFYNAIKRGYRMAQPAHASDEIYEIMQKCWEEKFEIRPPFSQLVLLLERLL
T2 sequence (P10721 589-937 limits assumed): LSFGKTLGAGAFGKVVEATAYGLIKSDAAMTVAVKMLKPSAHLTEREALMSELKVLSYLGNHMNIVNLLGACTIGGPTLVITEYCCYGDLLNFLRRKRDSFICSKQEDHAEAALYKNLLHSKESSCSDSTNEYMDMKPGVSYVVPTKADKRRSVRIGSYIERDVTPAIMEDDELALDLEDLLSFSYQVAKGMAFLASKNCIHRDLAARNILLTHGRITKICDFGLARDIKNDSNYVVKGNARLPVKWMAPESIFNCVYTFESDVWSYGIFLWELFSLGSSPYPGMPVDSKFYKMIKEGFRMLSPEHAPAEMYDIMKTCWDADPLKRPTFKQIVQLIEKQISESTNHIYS

As to `CNC(=O)c1cc(Oc2ccc3nc(NCC4(N5CCOCC5)CCCCC4)ncc3c2)ccn1` [Example 37, N-methyl-4-(2-((1-morpholinocyclohexyl)methylamino)quinazolin-6-yloxy)picolinamide], the inhibition (as a rule, the share of the control response that was lost under treatment) at 1 µM is 99% in assay [1], 16% against cKIT and < 1% on PDGFRb.

For `CNC(=O)c1cc(Oc2ccc3nc(N[C@H](C)c4ccccc4)ncc3c2)ccn1` [Example 38, (R)-N-methyl-4-(2-(1-phenylethylamino)quinazolin-6-yloxy)picolinamide], the inhibition at 1 µM amounted to 99% in assay [1], 92% on cKIT and 46% at PDGFRb.

In the case of `CNC(=O)c1cc(Oc2ccc3nc(NCC4CCCCC4)ncc3c2)ccn1` [Example 39, 4-(2-(cyclohexylmethylamino)quinazolin-6-yloxy)-N-methylpicolinamide], the inhibition at 1 µM was 99% in assay [1], 10% at cKIT and 52% on PDGFRb.

Consider `CNC(=O)c1cc(Oc2ccc3nc(Nc4cccc5c4OCCO5)ncc3c2)ccn1` [Example 40, 4-(2-(2,3-dihydrobenzo[b][1,4]dioxin-5-ylamino)quinazolin-6-yloxy)-N-methylpicolinamide], for which the inhibition at 1 µM in assay [1] was 100%; against cKIT, 13%; at PDGFRb, < 1%.

In the case of `CNC(=O)c1cc(Oc2ccc3nc(NCc4ccccc4N4CCOCC4)ncc3c2)ccn1` [Example 41, N-methyl-4-(2-(2-morpholinobenzylamino)quinazolin-6-yloxy)picolinamide], the inhibition at 1 µM amounted to 100% in assay [1], 6% against cKIT and 92% at PDGFRb.

For the compound `CNC(=O)c1cc(Oc2ccc3nc(NCc4cccc5c4OCCO5)ncc3c2)ccn1` [Example 42, 4-(2-((2,3-dihydrobenzo[b][1,4]dioxin-5-yl)methylamino)quinazolin-6-yloxy)-N-methylpicolinamide], the results for the inhibition at 1 µM (in assay [1]; against cKIT; on PDGFRb) were 100%, 99% and 66%, respectively.

As for `CNC(=O)c1cc(Oc2ccc3nc(NCc4ccc5c(c4)OCCO5)ncc3c2)ccn1` [Example 43, 4-(2-((2,3-dihydrobenzo[b][1,4]dioxin-6-yl)methylamino)quinazolin-6-yloxy)-N-methylpicolinamide], the inhibition at 1 µM is 98% in assay [1], 24% against cKIT and < 1% on PDGFRb.

With `CNC(=O)c1cc(Oc2ccc3nc(Nc4ccccc4OC)ncc3c2)ccn1` [Example 44, 4-(2-(2-methoxyphenylamino)quinazolin-6-yloxy)-N-methylpicolinamide], the figures for the inhibition at 1 µM (in assay [1]; against cKIT; on PDGFRb) were 99%, 44% and 3%, respectively.

Regarding `CCOc1ccccc1Nc1ncc2cc(Oc3ccnc(C(=O)NC)c3)ccc2n1` [Example 45, 4-(2-(2-ethoxyphenylamino)quinazolin-6-yloxy)-N-methylpicolinamide], the inhibition at 1 µM in assay [1] stood at 99%; against cKIT, 38%; on PDGFRb, 12%.

As for `CNC(=O)c1cc(Oc2ccc3nc(Nc4ccccc4OC(C)C)ncc3c2)ccn1` [Example 46, 4-(2-(2-isopropoxyphenylamino)quinazolin-6-yloxy)-N-methylpicolinamide], the inhibition at 1 µM in assay [1] was 100%; on cKIT it was 27%; on PDGFRb it was 17%.

`CNC(=O)c1cc(Oc2ccc3nc(NC(C)c4nccs4)ncc3c2)ccn1` (stereo not drawn) [Example 48, N-methyl-4-(2-(1-(thiazol-2-yl)ethylamino)quinazolin-6-yloxy)picolinamide]: the inhibition at 1 µM came to 98% in assay [1], 18% on cKIT and 15% on PDGFRb.

For `CCCNc1ncc2cc(Oc3ccnc(C(=O)NC)c3)ccc2n1` [Example 52, N-methyl-4-(2-(propylamino)quinazolin-6-yloxy)picolinamide], the inhibition at 1 µM stood at 52% in assay [1], 7% against cKIT and 9% on PDGFRb.

`CNC(=O)c1cc(Oc2ccc3nc(NCC4CC4)ncc3c2)ccn1` [Example 53, 4-(2-(cyclopropylmethylamino)quinazolin-6-yloxy)-N-methylpicolinamide]: the figures for the inhibition at 1 µM (in assay [1]; against cKIT; on PDGFRb) were 83%, < 1% and 9%, respectively.

As to `CNC(=O)c1cc(Oc2ccc3nc(Nc4ccccc4N4CCN(C)CC4)ncc3c2)ccn1` [Example 54, N-methyl-4-(2-(2-(4-methylpiperazin-1-yl)phenylamino)quinazolin-6-yloxy)picolinamide], the inhibition at 1 µM in assay [1] was determined as 65%; on cKIT, 47%; at PDGFRb it was 20%.

Take `CNC(=O)c1cc(Oc2ccc3nc(OCC4CCCCC4)ncc3c2)ccn1` [Example 55, 4-(2-(cyclohexylmethoxy)quinazolin-6-yloxy)-N-methylpicolinamide]: the values for the inhibition at 1 µM (in assay [1]; at cKIT; on PDGFRb) were 99%, 42% and 6%, respectively.

Regarding `CCOC(=O)N1CCC(Nc2ncc3cc(Oc4ccnc(C(=O)NC)c4)ccc3n2)CC1` [Example 56, ethyl 4-(6-(2-(methylcarbamoyl)pyridin-4-yloxy)quinazolin-2-ylamino)piperidine-1-carboxylate], the inhibition at 1 µM in assay [1] is 84%; on cKIT, 17%; on PDGFRb it was < 1%.

Regarding `CNC(=O)c1cc(Oc2ccc3nc(NC4CCN(C(=O)OC(C)(C)C)CC4)ncc3c2)ccn1` [Example 57, tert-butyl 4-(6-(2-(methylcarbamoyl)pyridin-4-yloxy)quinazolin-2-ylamino)piperidine-1-carboxylate], the inhibition at 1 µM in assay [1] turned out to be 93%; against cKIT, 12%; at PDGFRb, 2%.

In the case of `CNC(=O)c1cc(Oc2ccc3nc(NC4CCOCC4)ncc3c2)ccn1` [Example 58, N-methyl-4-(2-(tetrahydro-2H-pyran-4-ylamino)quinazolin-6-yloxy)picolinamide], the inhibition at 1 µM in assay [1] is 65%; against cKIT, 8%; on PDGFRb, < 1%.

On to `CNC(=O)c1cc(Oc2ccc3nc(NC(=O)C4CCCCC4)ncc3c2)ccn1` [Example 59, 4-(2-(cyclohexanecarboxamido)quinazolin-6-yloxy)-N-methylpicolinamide], for which the inhibition at 1 µM in assay [1] amounted to 99%; against cKIT, 13%; at PDGFRb it was 13%.

As for `CNC(=O)c1cc(Oc2ccc3nc(NC(=O)NC4CCCCC4)ncc3c2)ccn1` [Example 60, 4-(2-(3-cyclohexylureido)quinazolin-6-yloxy)-N-methylpicolinamide], the values for the inhibition at 1 µM (in assay [1]; on cKIT; on PDGFRb) were 97%, 17% and 12%, respectively.
